For one experiment, the target named is EZH2 (Homo sapiens, UniProt Q15910). The note with it: cited from earlier work.
The next experiment has as its system Sox17+/Oct4− cells. The experiment can be described thus: Flow cytometry for Sox17 and Oct4 at S1C after amino acid supplementation in S1 of Protocol 2. To be noted: supplementation in S1 to final 200 μM aspartate, 300 μM glycine, 585 μM serine, Protocol 2, 0.3 L scale. The format is cell-based. How it is done: (§1) To determine whether supplementation of amino acids identified in Example 1 altered cellular differentiation outcomes, the following experiments were conducted. […] A control condition following Protocol 2 only was also performed.
The amino acid supplemented S1 base media were utilized for each S1 feed in a Protocol 2 differentiation at 0.3 L scale, alongside a control. At S1C, samples of cells were collected, stained with Sox17 and Oct4 and analyzed by flow cytometry.
In general terms: A flow cytometer gives signals particle by particle.

For another experiment, the system named is PDX1+/NKX6.1− cells. The experiment can be described thus: Flow cytometry for NKX6.1 and PDX1 at S3C after amino acid supplementation in S1. The experiment is classed as cell-based. To be noted: supplementation in S1 to final 200 μM aspartate, 300 μM glycine, 585 μM serine. As to the method:
as §1
At S3C, samples of the cells that were supplemented with different amino acids during S1C were collected and stained with NKX6.1 and PDX1 and analyzed using flow cytometry. […] In the control, 89.3% of cells were in PDX1+/NKX6.1-, while in aspartate supplemented samples 90% of cells were PDX1+/NKX6.1-(FIG. 6B).

Experiment [1] concerns ISL1+/NKX6.1+ (β-like) cells and ISL1+/NKX6.1− (α-like) cells. Kind of experiment: Flow cytometry for NKX6.1 and ISL1 at S5C after amino acid supplementation in S1. The experiment is classed as cell-based. To be noted: supplementation in Stage 1; for amount of SC-β-cells / SC-β-cell composition versus control: Stage 5 (S5C). As to the method: as §1
(§2) At S5C, samples of the cells that were supplemented with different amino acids during S1C were collected and stained with NKX6.1 and ISL1 and analyzed using flow cytometry. […] To determine how amino acid supplementation affected yield, cell viability assays were performed.
(§3) In the next set of experiments, different combinations of amino acids were tested for their effects on yield and β-cell composition. […] The control group only received treatment with Protocol 2. […] The amino acid supplemented S1 base media were utilized for each S1 feed in a Protocol 2 differentiation at 0.3 L scale, alongside a control. At S5C, samples of cells were collected, stained with NKX6.1 and ISL1 and analyzed by flow cytometry. […] To determine how amino acid supplementation affected yield, cell viability assays were performed.

In a further experiment the test system is PDX1+/NKX6.1+ cells. The experiment can be described thus: Flow cytometry for NKX6.1 and PDX1 at S4C after amino acid supplementation in S1. The experiment is classed as cell-based. The note with it: supplementation in S1 to final 200 μM aspartate, 300 μM glycine, 585 μM serine. As to the method: as §1
At S4C, samples of the cells that were supplemented with different amino acids during the S1C step were collected and stained with NKX6.1 and PDX1 and analyzed using flow cytometry.

The next experiment relates to viable cell density. The experiment can be described thus: Cell viability assays / yield of Protocol 2 differentiation with amino acid supplementation in S1. The format is cell-based. How it is done: as §2, §3

EZH2, sequence (Q15910 whole entry, species assumed): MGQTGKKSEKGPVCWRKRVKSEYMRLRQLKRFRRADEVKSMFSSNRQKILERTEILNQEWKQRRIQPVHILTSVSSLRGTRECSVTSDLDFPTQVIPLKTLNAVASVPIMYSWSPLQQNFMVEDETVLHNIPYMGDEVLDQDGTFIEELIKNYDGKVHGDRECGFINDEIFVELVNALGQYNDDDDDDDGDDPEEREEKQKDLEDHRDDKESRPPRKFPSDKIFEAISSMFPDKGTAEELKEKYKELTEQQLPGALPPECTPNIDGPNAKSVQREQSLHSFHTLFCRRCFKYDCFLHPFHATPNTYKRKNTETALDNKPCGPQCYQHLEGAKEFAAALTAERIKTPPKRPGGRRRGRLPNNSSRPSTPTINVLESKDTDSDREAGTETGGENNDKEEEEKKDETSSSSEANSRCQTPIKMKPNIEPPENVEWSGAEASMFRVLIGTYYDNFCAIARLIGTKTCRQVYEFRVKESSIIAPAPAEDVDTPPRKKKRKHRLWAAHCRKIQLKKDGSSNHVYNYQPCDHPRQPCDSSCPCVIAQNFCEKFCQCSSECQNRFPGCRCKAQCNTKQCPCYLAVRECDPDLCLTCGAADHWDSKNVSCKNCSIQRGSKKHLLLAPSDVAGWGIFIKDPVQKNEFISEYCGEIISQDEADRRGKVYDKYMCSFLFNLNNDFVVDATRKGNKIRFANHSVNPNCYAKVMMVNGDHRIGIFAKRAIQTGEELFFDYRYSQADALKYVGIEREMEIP
EZH2, sequence (O75530 whole entry partner, species assumed): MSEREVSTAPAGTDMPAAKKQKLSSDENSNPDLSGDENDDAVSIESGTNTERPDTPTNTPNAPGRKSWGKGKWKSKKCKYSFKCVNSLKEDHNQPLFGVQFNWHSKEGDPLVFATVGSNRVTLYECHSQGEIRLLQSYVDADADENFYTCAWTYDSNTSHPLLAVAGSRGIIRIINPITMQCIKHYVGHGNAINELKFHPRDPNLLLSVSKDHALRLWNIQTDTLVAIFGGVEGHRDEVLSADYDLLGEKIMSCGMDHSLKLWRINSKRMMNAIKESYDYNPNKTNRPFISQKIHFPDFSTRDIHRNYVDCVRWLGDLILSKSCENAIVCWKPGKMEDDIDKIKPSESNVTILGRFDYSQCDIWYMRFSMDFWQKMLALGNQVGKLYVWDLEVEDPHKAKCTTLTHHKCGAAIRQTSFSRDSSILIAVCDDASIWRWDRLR
EZH2, sequence (Q15022 whole entry partner, species assumed): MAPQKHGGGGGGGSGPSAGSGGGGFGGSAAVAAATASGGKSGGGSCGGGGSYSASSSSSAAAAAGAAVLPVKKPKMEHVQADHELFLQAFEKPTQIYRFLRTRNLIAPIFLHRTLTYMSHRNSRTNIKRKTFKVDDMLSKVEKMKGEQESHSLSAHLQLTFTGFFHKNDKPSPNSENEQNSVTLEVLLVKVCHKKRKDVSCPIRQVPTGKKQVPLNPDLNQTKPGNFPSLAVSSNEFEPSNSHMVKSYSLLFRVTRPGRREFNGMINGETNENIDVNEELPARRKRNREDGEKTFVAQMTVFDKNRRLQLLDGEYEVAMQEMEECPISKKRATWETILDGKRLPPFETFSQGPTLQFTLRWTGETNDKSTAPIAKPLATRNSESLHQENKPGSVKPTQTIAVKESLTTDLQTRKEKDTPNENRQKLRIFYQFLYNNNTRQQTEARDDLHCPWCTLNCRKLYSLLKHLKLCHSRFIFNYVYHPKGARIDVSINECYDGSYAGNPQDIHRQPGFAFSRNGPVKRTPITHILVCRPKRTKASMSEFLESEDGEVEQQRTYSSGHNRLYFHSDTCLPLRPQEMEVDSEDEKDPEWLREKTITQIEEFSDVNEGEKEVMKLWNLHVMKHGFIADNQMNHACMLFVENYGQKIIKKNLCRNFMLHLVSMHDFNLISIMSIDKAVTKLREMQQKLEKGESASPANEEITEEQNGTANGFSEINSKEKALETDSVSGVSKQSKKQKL

For `CC[C@H](C)n1cc(C)c2c(C(=O)NCc3c(C)cc(C)[nH]c3=O)cc(-c3ccc(N4CCNCC4)nc3)cc21` [GSK126], the “selectivity over EZH1” value on EZH2 (EZH2 versus EZH1) is 150 fold.
As for `N[C@@H](CO)C(=O)O` [Protocol 2 + Serine, serine], the “% of Sox17+/Oct3/4− cells” value in the experiment on Sox17+/Oct4− cells worked out at 72.9%. Further, the “% of PDX1+/NKX6.1− cells” value in the experiment on PDX1+/NKX6.1− cells amounted to 89.1%. In addition, the α-like cell development result in experiment [1] (S5C) was “promoted α-like cell development”. In addition, in the experiment with PDX1+/NKX6.1+ cells, the “% of PDX1+/NKX6.1+ cells” value came out at 72.1%. Besides, the “yield (viable cells at harvest) relative to the control” value in the experiment on viable cell density is on record as “decreased yield”.
On to `CCCc1cc(C)[nH]c(=O)c1CNC(=O)c1cc(-c2ccc(N3CCN(C(C)C)CC3)nc2)cc2c1cnn2C(C)C` [UNC1999], for which the “selectivity compared with GSK126” value on EZH2 is “less selective”.
With aspartate [Protocol 2 + Aspartate], the “% of Sox17+/Oct3/4− cells” value in the experiment on Sox17+/Oct4− cells was found to be 75.6%. Besides, in the experiment on PDX1+/NKX6.1− cells, the “% of PDX1+/NKX6.1− cells” value is listed as 90%. The “amount of SC-β-cells / SC-β-cell composition versus control” value in experiment [1] is reported as “increased”. For the same compound, the “% of PDX1+/NKX6.1+ cells” value in the experiment on PDX1+/NKX6.1+ cells amounted to 77.8%.
In the case of glycine [Protocol 2 + Glycine], in the experiment with Sox17+/Oct4− cells, the “% of Sox17+/Oct3/4− cells” value turned out to be 81.1%. Also, the “% of PDX1+/NKX6.1− cells” value in the experiment with PDX1+/NKX6.1− cells is listed as 89.1%. Further, the “amount of SC-β-cells / SC-β-cell composition versus control” value in experiment [1] is reported as “increased”. For the same compound, the “% of PDX1+/NKX6.1+ cells” value with PDX1+/NKX6.1+ cells worked out at 77.2%. Besides, the “yield (viable cells at harvest) relative to the control” value with viable cell density is “decreased yield”.

(Values after patent US20250243464A1, “ENHANCED DIFFERENTIATION OF PANCREATIC ISLET CELLS” (Vertex Pharmaceuticals Incorporated, priority 2022, published 2025).)
